Tests used:
GcoA-F169A and GcoB = target: T1, GcoA-F169A and GcoB (Amycolatopsis sp., UniProt P0DPQ7, F169A/H210Q); assay: Stoichiometric end-point analysis of reactants and products (HPLC, formaldehyde assay); format: biochemical; settings: for Formaldehyde produced: 100 μM substrate, 210 μM O2, reaction to completion
T1 construct: GST (N, cleaved yes); made in house; host or cells: E. coli Rosetta 2 (DE3)
Procedure: FIG. 3 depicts quantitative analyses of substrate consumption and product generation indicate nearly complete coupling of NADH/O2 consumption to substrate O-demethylation for guaiacol, and progressively more uncoupling for syringol and 3MC. NADH (200 μM) and guaiacol, syringol, or 3MC (100 or 200 μM) were incubated in air with 0.2 μM GcoA-F169A and GcoB (each) (25 mM HEPES, 50 mM NaCl, pH 7.5, 25° C., 210 μM O2). Reactants and products were quantified when the UV/vis spectra ceased changing and the reaction deemed complete. The total NADH consumed is compared above to the amounts of formaldehyde and de-methylated aromatic compound produced. Pyrogallol, the O-demethylated product of 3MC, was not detected under any condition. Error bars represent ±1 standard deviation from three or more independent measurements.
Since both methoxy groups of syringol can potentially serve as substrates, we examined syringol turnover in a number of ways. Syringol (100 μM) was first incubated with NADH (200 μM) and excess dissolved O2 (210 μM), and the reaction with the GcoA-F169A mutant allowed to go to completion. As with the guaiacol reaction, all of the NADH and syringol were consumed (FIG. 3), implying that syringol undergoes two O-demethylations, producing 3MC and then pyrogallol (210 μM O2, 25 mM HEPES, 50 mM NaCl, pH 7, 25° C.).
The stoichiometric analysis was next repeated with NADH and syringol present in equal concentrations (200 μM each; 210 μM O2), conditions expected to permit at most half of the available methoxy groups to react. All of the NADH and 150±6 μM of syringol were consumed; 200±3 μM formaldehyde and 120±2 μM 3MC were generated (Table 1, FIG. 3).
Formaldehyde determination. A colorimetric assay using tryptophan can be used to quantify the amount of formaldehyde produced in F169 GcoA/B reactions with guaiacol, syringol, or 3MC. 0.2 μM each of F169 GcoA mutants and GcoB were dissolved in air-saturated buffer (25 mM HEPES, 50 mM NaCl) in a cuvette at pH 7.5, 25° C. 100 μg/mL catalase was added to each reaction to capture any H2O2 formed during the uncoupled reaction. Two hundred μM NADH was added and the background rate recorded. One hundred (guaiacol, syringol, or 3MC) or 200 (syringol) μM of substrate was then added and the reaction monitored until there was no more change, due to either substrate, NADH or O2 depletion, whichever occurred first. 200 μL of the reaction was then quenched by adding 200 μL of a 0.1% tryptophan solution in 50% ethanol and 200 μL of 90% sulfuric acid. Upon thorough mixing, 40 μL of 1% FeCl3 was added. The solution was then incubated in a heating block for 90 min at 70° C. After cooling, the absorbance was read at 575 nm and the concentration of formaldehyde was calculated by using ε575 nm=4.2 mM^−1 cm^−1, obtained with formaldehyde as a standard. A negative control included everything but the substrate and was used as a baseline.
Analyte analysis of the above end-point reactions (100 μM guaiacol, syringol, or 3MC, or 200 μM syringol) was performed on an Agilent 1100 LC system (Agilent Technologies) equipped with a G1315B diode array detector (DAD). Each sample and standard was injected at a volume of 10 μL onto a Symmetry C18 column 5 μm, 4.6×150 mm column (Waters). The column temperature was maintained at 30° C. and the buffers used to separate the analytes of interest was 0.01% TFA in water (A)/acetonitrile (B). The separation was carried out using a gradient program of: (A)=99% and (B)=1% at time t=0 min; (A)=99% and (B)=1% at time t=2 min, (A)=50% and (B)=50% at t=8 min; (A)=1% and (B)=99% at t=8.01 min; (A)=99% and (B)=1% at t=10.01 min; (A)=99% and (B)=1% at t=11 min. The flow rate was held constant at 1.5 mL min^−1, resulting in a run time of 11 minutes. DAD wavelengths of 210 and 325 nm were used for analysis of the analytes of interest. Standard curves were generated using 0-500 μM of guaiacol, syringol, 3MC, catechol, and pyrogallol. […]

GcoA = GcoA (Amycolatopsis sp., UniProt P0DPQ7, H210Q); assay: Syringol binding to wild-type GcoA (KD)
Text: The syringol binding mode can be modulated by active site engineering. Guaiacol assumes a productive orientation in the active site of GcoA due to the action of amino acid side chains that create a tight-fitting hydrophobic pocket. The closest contact is with GcoA-F169, which forms a hydrophobic interaction with the C6 carbon on the aromatic ring of guaiacol. […] We identified that the mutation of GcoA-F169 to a smaller residue may relieve the apparent steric clash between it and the bound ligand in the active site, allowing syringol to adopt a productive conformation. To test this hypothesis, GcoA-F169 was substituted with several alternative amino acids (A, S, H, V, I, and L) with the aim of introducing productive syringol turnover while retaining reactivity with guaiacol.

[1] = 200 μM syringol, 200 μM NADH, 210 μM O2

T1 sequence (P0DPQ7 whole entry F169A/H210Q): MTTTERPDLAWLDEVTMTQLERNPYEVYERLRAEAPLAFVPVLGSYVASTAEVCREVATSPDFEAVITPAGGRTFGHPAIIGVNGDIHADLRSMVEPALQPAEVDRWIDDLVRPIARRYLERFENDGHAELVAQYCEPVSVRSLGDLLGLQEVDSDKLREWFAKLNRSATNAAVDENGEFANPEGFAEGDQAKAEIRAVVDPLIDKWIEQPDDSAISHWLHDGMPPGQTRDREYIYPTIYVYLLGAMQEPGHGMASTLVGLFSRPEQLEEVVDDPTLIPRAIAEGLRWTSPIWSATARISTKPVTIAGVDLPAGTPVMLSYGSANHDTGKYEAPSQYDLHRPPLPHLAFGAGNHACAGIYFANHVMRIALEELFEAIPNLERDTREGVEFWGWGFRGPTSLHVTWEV
Sequence of GcoA (P0DPQ7 whole entry H210Q): as the sequence (P0DPQ7 whole entry F169A/H210Q) above, with A169F counted along it

Row | Structure (SMILES) | Formaldehyde produced (GcoA-F169A and GcoB; 200 μM NADH) | Kd (GcoA) [µM] | Singly demethylated intermediate 3MC observed at end of reaction (GcoA-F169A and GcoB; 100 μM syringol, 200 μM NADH, 210 μM O2) [µM] | 3MC generated (GcoA-F169A and GcoB; [1]) [µM] | Formaldehyde generated (GcoA-F169A and GcoB; [1]) [µM] | Syringol consumed (GcoA-F169A and GcoB; [1]) [µM] | Pyrogallol detection (GcoA-F169A and GcoB; any of the conditions used)
1 | COc1cccc(O)c1O [3MC, 3-methoxycatechol] | approximately 100 μM |  |  |  |  |  | 
2 | COc1cccc(OC)c1O [syringol, 2,6-dimethoxyphenol] | 170 ± 10 µM | 2.8 ± 0.4 | 50 ± 4 | 120 ± 2 | 200 ± 3 | 150 ± 6 | not detected

Source: patent US11208642B2, “Microbial syringol utilization” (Alliance for Sustainable Energy, LLC, priority 2018, dated 2021)
